Key:
[1] = test system: Escherichia coli wild type strain CA 8000; experiment: UV protection assay for bacteria cultivated in presence of the compounds; format: cell-based; details: for Titre estimated (cfu), Initial: bacteria grown in presence of compound, before UV exposure, control 3.73 × 10^7; for Killing % in comparison to the control: bacteria grown with compound, UV exposed
Description: (§1) UV light is not only harmful to humans but also to all other biological systems including microorganisms. The majority of the studies of the effect of UV light on microbes and its modes of action have shown the formation of thymidine dimers, which cause mutations and excessive exposure thus leads to death of the bacteria. […] Therefore, the assays involving the screening of potential UV protectant compounds against bacterial system exposure in presence and absence of test compound is easy, less time consuming and environmentally safe. We carried out simple experiments involving the bacterium Escherichia coli (Wild type) (Kumar, 5. 1976. Journal of Bacteriology, 125: 545-555) as the test system. Escherichia coli is a Gram negative bacterium and sensitive to ultraviolet light. The bacterial cells were grown in broth cultures were exposed to UV light for different time periods and the survival in terms of colony forming units was determined to estimate the killing percentage. The experiments comprised of a series of different steps in two distinct manners/routes (Example 1 and 2 below). In these examples, various quantities were mentioned are not confined to the said limits but can be variable depending upon the need and scale of experiment or screen to be employed. Two different approaches as described below were followed. In one case, the bacterial cells were grown in presence of the test compound and then exposed to UV while, in other case the bacteria were exposed to the two wavelength of UV light filtered through a UV transparent film coated with the compound and using uncoated film as control.
UV Protection Assays for the Bacteria Cultivated in Presence of the Compounds
(§2) Step A: Growing bacterial cultures: The wild type strain CA 8000 of Escherichia coli was in the assays. A single colony was inoculated in 5 ml Luria broth and incubated at 37° C. temperature for 16 hour in a water bath shaker. Bacteria were grown in presence of test compounds with plain LB as growth medium.
Step B: Determining killing percentage of bacteria in relation to UV exposure time: This was done in the following steps.
a. The broth culture was diluted to 10 times in sterile water.
b. About 0.3 ml of the diluted bacterial suspension was transferred to the petriplates forming a thin layer at the bottom (in replicates).
c. In the dark room a UV source was placed at least 10 cm above the plates (This distance may vary depending upon the need of the experiment)
d. The cfu (colony forming unit) count was determined by serially diluting the exposed and control bacteria and plating on the Luria agar plate followed by counting the viable units of the bacteria forming colonies upon incubation at 37° C. overnight.
These two exposure levels were used further in our experiment to test the efficacy of different compounds for UV protection.
Step C: The bacterial cultures were grown in presence of different concentrations of the test compounds, exposed in the same way as in step B and viable cfu count was determined.

[2] = test system: Escherichia coli wild type strain CA 8000; experiment: UV protection assay through compound-coated UV transparent film; format: cell-based; details: for Protection (%) / Titre after UV exposure, film coated with menthyl benzoate / Killing (%), film coated with menthyl benzoate: film coated 50 μg per ml, 312 nm; for Titre after UV exposure, film coated with menthyl benzoate: initial titre 2.490 × 10^8
Description: as §1
Exposure of the Bacteria to UV Light Through a UV Transparent Film Coated with the Compound
as §2, with “wild type strain, CA 8000” for “wild type strain CA 8000”, “coli was used in the” for “coli was in the”
Step B: The bacterial culture was harvested by centrifugation and pellet was suspended in equal amount of sterile distilled water. The bacterial pellet was harvested by centrifuging at 5000 RPM for 10 minute and suspended in 25 ml sterile distilled water.
Step C: About 0.3 ml of the broth culture of the bacteria was transferred to petriplates forming a thin layer at the bottom (in replicates). At least 5 replicates per treatment were used along with control plates containing bacteria.
Step D: The plates were covered with UV transparent film, which was coated with different concentrations of the test compounds.
Step E: In the dark room a UV source was placed at least 10 cm above the plates (which may vary depending upon the experiment). In this invention, the UV torch emitting two-fixed wavelength (312 nm and 365 nm) was used.
Step F: Light source was switched-on for different time intervals for the predetermined lethality levels based on the killing curve of control bacteria determined by UV exposure through uncoated film.
Step G: The viable cfu (colony forming unit) count was determined by serially diluting the exposed and control bacteria and then plating on the Luria agar plates followed by counting the viable units of the bacteria forming colonies (Table 1).

[3] = 120 seconds UV exposure (LD70), control 1.119 × 10^7
[4] = 120 seconds UV exposure, control 70.00%
[5] = 150 seconds UV exposure (LD80), control 0.746 × 10^7
[6] = 150 seconds UV exposure, control 80.00%
[7] = UV exposure equivalent to lethality level 10%
[8] = UV exposure equivalent to lethality level 25%
[9] = UV exposure equivalent to lethality level 50%

Row | SMILES | Titre estimated (cfu), final after UV exposure [1, 3] | Killing (%) after UV exposure [1, 4] | Titre estimated (cfu), final after UV exposure [1, 5] | Killing (%) after UV exposure [1, 6] | Titre estimated (cfu), Initial [1] | Killing % in comparison to the control [1] | Protection (%) [2, 7] | Titre after UV exposure, film coated with menthyl benzoate [2, 7] | Killing (%), film coated with menthyl benzoate ([2]; UV exposure equivalent to lethality level 10%, uncoated film 10.04%) | Protection (%) [2, 8] | Titre after UV exposure, film coated with menthyl benzoate [2, 8] | Killing (%), film coated with menthyl benzoate ([2]; UV exposure equivalent to lethality level 25%, uncoated film 25.02%) | Protection (%) [2, 9] | Titre after UV exposure, film coated with menthyl benzoate [2, 9] | Killing (%), film coated with menthyl benzoate ([2]; UV exposure equivalent to lethality level 50%, uncoated film 50.12%) | Effect on percentage of lethality of the bacteria ([2]; at all levels of lethality tested) | Most optimum concentration coated on the film for UV protection ([2]; out of all concentrations coated on the film, higher concentration does not substantially increase protection) | UV protection in comparison to other known UV protectants ([1]; 50 μg/ml in culture) | Protection efficiency, comparison between compounds ([1]; descending series of the three compounds) | Safety to the bacterial system: titre (cfu) when bacteria are grown in presence of the compound ([1]; treated versus untreated cultures, no UV)
1 | O=C(OCc1ccccc1)c1ccccc1 [Benzyl benzoate, Benzyl Benzoate] | 1.460 × 10^7 cfu | 60.86% | 1.240 × 10^7 cfu | 66.75% | 3.73 × 10^7 cfu | much less in comparison to the control | – | – | – | – | – | – | – | – | – | – | – | – | – | –
2 | O=C(CC(=O)c1ccccc1)c1ccccc1 [Dibenzoyl methane] | 1.162 × 10^7 cfu | 68.85% | 1.050 × 10^7 cfu | 71.85% | 3.73 × 10^7 cfu | much less in comparison to the control | – | – | – | – | – | – | – | – | – | – | – | – | – | –
3 | CC1CCC(C(C)C)C(OC(=O)c2ccccc2)C1 (stereo not shown) [Menthyl benzoate, Menthyl Benzoate] | 1.660 × 10^7 cfu | 55.49% | 1.300 × 10^7 cfu | 65.15% | 3.73 × 10^7 cfu | – | 70.01% | 2.415 × 10^8 cfu per ml | 3.01% | 24.58% | 2.020 × 10^8 cfu per ml | 18.87% | 12.67% | 1.400 × 10^8 cfu per ml | 43.77% | reduced the percentage of lethality of the bacteria | 50 μg per ml | significant protection | better protectant than the commercially used dibenzoyl methane | no decrease of titre was observed

Source: patent US6831100B2, “Menthyl benzoate formulations for external UV protection” (priority 2000, dated 2004)
